Results from EP4640206A1, “NISIN FOR INHIBITING BIOFILMS” (SkyLab AG, priority 2024, dated 2025).

What was measured:
S.mutans biofilms = assay: Follow-up observation of pH of washes of a laboratory model of S. mutans biofilms in 10% sucrose; assay type: cell-based, Streptococcus mutans; conditions: 10% sucrose; for Value of pH decrease within 30 min. of measurement (%): compared to the initial value
Protocol: Example No. 2. Follow-up observation of pH of washes of a laboratory model of S. mutans biofilms.
Inoculum of S.mutans control strain was prepared from an ampoule. The ampoule with the dried strain was opened sterilely over a drier or a tray. The upper end of the ampoule was heated on a burner flame, and paraffin was removed; then a piece of sterile absorbent cotton moistened in sterile water was carefully touched to the pulled end of the ampoule so that a small crack appeared, and the same wet cotton was passed around the tip of the ampoule. After the crack had formed, the end of the ampoule was removed with a light blow of tweezers. After opening the ampoule, 0.3-0.5 ml of heart-brain broth was sterilely poured in. After dissolution of the dry contents, the ampoule was transferred with a Pasteur pipette into tubes with 2 ml of heart-brain broth and grown at 37°C for 2 hours in a thermostat in 5% CO2 medium. To restore full viability, 1-2 passages on nutrient media appropriate for the microbes of the species were required. 2 Petri dishes with agar containing 5% horse blood were seeded with 0.1 ml of a 2-hour culture on heart-brain broth of the strain. Petri dishes were incubated at 37°C for 18 hours in an incubator containing 5% CO2. Gram stained smears were prepared from the grown colonies to assess the tinctorial, phenotypic properties and homogeneity of bacteria. Species membership was confirmed using MALDI-TOF reference bases.
Aqueous solutions of nisin in concentrations of 0.004 and 0.008% were taken as the working solutions for testing. […] Distilled water was used as a negative control. […] Urea was chosen due to its ability to alkalinize the environment in bacterial biofilms (Jadon et al., 2018). During the assay, a 10% sucrose solution was used, which is known to be readily metabolized by cariogenic bacteria to acid, thus contributing to the overall acidification of the medium.
The contents of the wells were extracted using an aspirator. All 6 wells of the first row were filled with 1 ml of deionized water and left for 5 min. The water was extracted with an aspirator; 1 ml of the test solution was added into the wells; in 1 min the component was removed, the wells were glazed for 1 min with deionized water, then it was removed. 250 µl of 10% sucrose was added to the wells and biofilms were scraped off the well walls with a disposable plastic loop. The resulting suspension was transferred by pipette into three Eppendorf tubes: contents of wells 1 and 2 into Eppendorf tube No. 1, contents of wells 3 and 4 into Eppendorf tube No. 2, contents of wells 5 and 6 into Eppendorf tube No. 3; next, the measurement of pH started immediately. Time points of the measurement are: 0, 1, 2, 3, 4, 5, 6, 7, 8, 9, 10, 15, 20, 30 min. After the test was finished, the electrode was washed and the described procedure was repeated for the next solution under study.

[1] = system: Streptococcus mutans No. 22081; assay: Effect of nisin concentrations on growth and biomass accumulation of S.mutans, serial two-fold dilutions micromethod, 16-hour follow-up (optical density A565 nm); assay type: cell-based
From the text: Example No. 1. Determination of the effect of different concentrations of nisin on growth and biomass accumulation of S.mutans No. 22081 in 16-hour follow-up.
Aqueous solution of nisin in different concentrations was used as the working solution.
To prepare the reaction mixture containing the tested component, a method of serial twofold dilutions in heart-brain broth (Series 201181, valid till 012025., CONDALAB, Spain), a micromethod (flat-bottom 96-well plate), for which serial dilutions of the investigated component were prepared in liquid nutrient medium. When setting the methods of serial dilutions, control of culture growth on medium without the active component was carried out, and the quality of medium and investigated preparations was controlled using reference strains of the species. The purity of the microorganism suspension used for inoculation was also controlled by sowing on non-selective media.
The results of the micromethod formulation to evaluate the effect of drugs on the growth and development of the culture of Streptococcus mutans No. 22081 were recorded spectrophotometrically in an automatic kinetic format (intermittent shaking, T-37°C, measurement of optical density A565 nm every hour in automatic mode).

[2] = heart-brain broth, 37°C, 16-hour follow-up

Nisin
pH of mechanically disrupted S.mutans biofilms (S.mutans biofilms; Nisin 0.004%, 0 min): 6.09±0.006 | pH of mechanically disrupted S.mutans biofilms (S.mutans biofilms; Nisin 0.004%, 1 min): 6.08±0.006 | pH change (in brackets), S.mutans biofilms (S.mutans biofilms; Nisin 0.004%, 1 min vs previous time point): -0.01 | pH of mechanically disrupted S.mutans biofilms (S.mutans biofilms; Nisin 0.004%, 2 min): 6.07±0.006 | pH change (in brackets), S.mutans biofilms (S.mutans biofilms; Nisin 0.004%, 2 min vs previous time point): -0.01 | pH of mechanically disrupted S.mutans biofilms (S.mutans biofilms; Nisin 0.004%, 3 min): 6.05±0.006 | pH change (in brackets), S.mutans biofilms (S.mutans biofilms; Nisin 0.004%, 3 min vs previous time point): -0.02 | pH of mechanically disrupted S.mutans biofilms (S.mutans biofilms; Nisin 0.004%, 4 min): 6.05±0 | pH change (in brackets), S.mutans biofilms (S.mutans biofilms; Nisin 0.004%, 4 min vs previous time point): 0 | pH of mechanically disrupted S.mutans biofilms (S.mutans biofilms; Nisin 0.004%, 5 min): 6.04±0.006 | pH change (in brackets), S.mutans biofilms (S.mutans biofilms; Nisin 0.004%, 5 min vs previous time point): -0.01 | pH of mechanically disrupted S.mutans biofilms (S.mutans biofilms; Nisin 0.004%, 6 min): 6.05±0.006 | pH change (in brackets), S.mutans biofilms (S.mutans biofilms; Nisin 0.004%, 6 min vs previous time point): +0.01 | pH of mechanically disrupted S.mutans biofilms (S.mutans biofilms; Nisin 0.004%, 7 min): 6.05±0.006 | pH change (in brackets), S.mutans biofilms (S.mutans biofilms; Nisin 0.004%, 7 min vs previous time point): 0 | pH of mechanically disrupted S.mutans biofilms (S.mutans biofilms; Nisin 0.004%, 8 min): 6.05±0 | pH change (in brackets), S.mutans biofilms (S.mutans biofilms; Nisin 0.004%, 8 min vs previous time point): 0 | pH of mechanically disrupted S.mutans biofilms (S.mutans biofilms; Nisin 0.004%, 9 min): 6.05±0 | pH change (in brackets), S.mutans biofilms (S.mutans biofilms; Nisin 0.004%, 9 min vs previous time point): 0 | pH of mechanically disrupted S.mutans biofilms (S.mutans biofilms; Nisin 0.004%, 10 min): 6.06±0.006 | pH change (in brackets), S.mutans biofilms (S.mutans biofilms; Nisin 0.004%, 10 min vs previous time point): +0.01 | pH of mechanically disrupted S.mutans biofilms (S.mutans biofilms; Nisin 0.004%, 15 min): 6.05±0.006 | pH change (in brackets), S.mutans biofilms (S.mutans biofilms; Nisin 0.004%, 15 min vs previous time point): -0.01 | pH of mechanically disrupted S.mutans biofilms (S.mutans biofilms; Nisin 0.004%, 20 min): 6.04±0.006 | pH change (in brackets), S.mutans biofilms (S.mutans biofilms; Nisin 0.004%, 20 min vs previous time point): -0.01 | pH of mechanically disrupted S.mutans biofilms (S.mutans biofilms; Nisin 0.004%, 30 min): 6.0±0 | pH change (in brackets), S.mutans biofilms (S.mutans biofilms; Nisin 0.004%, 30 min vs previous time point): -0.04 | Value of pH decrease within 30 min. of measurement (%) (S.mutans biofilms; Nisin 0.004%): -1.47% | Value of pH decrease within 30 min. of measurement (%) (S.mutans biofilms; Nisin 0.008%): -3.15% | pH of mechanically disrupted S.mutans biofilms (S.mutans biofilms; Nisin 0,008%, 0 min): 6.33±0 | pH of mechanically disrupted S.mutans biofilms (S.mutans biofilms; Nisin 0,008%, 1 min): 6.32±0.006 | pH change (in brackets), S.mutans biofilms (S.mutans biofilms; Nisin 0,008%, 1 min vs previous time point): -0.01 | pH of mechanically disrupted S.mutans biofilms (S.mutans biofilms; Nisin 0,008%, 2 min): 6.31±0.006 | pH change (in brackets), S.mutans biofilms (S.mutans biofilms; Nisin 0,008%, 2 min vs previous time point): -0.01 | pH of mechanically disrupted S.mutans biofilms (S.mutans biofilms; Nisin 0,008%, 3 min): 6.28±0.01 | pH change (in brackets), S.mutans biofilms (S.mutans biofilms; Nisin 0,008%, 3 min vs previous time point): -0.03 | pH of mechanically disrupted S.mutans biofilms (S.mutans biofilms; Nisin 0,008%, 4 min): 6.24±0.006 | pH change (in brackets), S.mutans biofilms (S.mutans biofilms; Nisin 0,008%, 4 min vs previous time point): -0.04 | pH of mechanically disrupted S.mutans biofilms (S.mutans biofilms; Nisin 0,008%, 5 min): 6.21±0.006 | pH change (in brackets), S.mutans biofilms (S.mutans biofilms; Nisin 0,008%, 5 min vs previous time point): -0.03 | pH of mechanically disrupted S.mutans biofilms (S.mutans biofilms; Nisin 0,008%, 6 min): 6.21±0 | pH change (in brackets), S.mutans biofilms (S.mutans biofilms; Nisin 0,008%, 6 min vs previous time point): -0.03 | pH of mechanically disrupted S.mutans biofilms (S.mutans biofilms; Nisin 0,008%, 7 min): 6.23±0 | pH change (in brackets), S.mutans biofilms (S.mutans biofilms; Nisin 0,008%, 7 min vs previous time point): +0.02 | pH of mechanically disrupted S.mutans biofilms (S.mutans biofilms; Nisin 0,008%, 8 min): 6.23±0 | pH change (in brackets), S.mutans biofilms (S.mutans biofilms; Nisin 0,008%, 8 min vs previous time point): 0 | pH of mechanically disrupted S.mutans biofilms (S.mutans biofilms; Nisin 0,008%, 9 min): 6.21±0 | pH change (in brackets), S.mutans biofilms (S.mutans biofilms; Nisin 0,008%, 9 min vs previous time point): -0.02 | pH of mechanically disrupted S.mutans biofilms (S.mutans biofilms; Nisin 0,008%, 10 min): 6.2±0.006 | pH change (in brackets), S.mutans biofilms (S.mutans biofilms; Nisin 0,008%, 10 min vs previous time point): -0.01 | pH of mechanically disrupted S.mutans biofilms (S.mutans biofilms; Nisin 0,008%, 15 min): 6.18±0 | pH change (in brackets), S.mutans biofilms (S.mutans biofilms; Nisin 0,008%, 15 min vs previous time point): -0.02 | pH of mechanically disrupted S.mutans biofilms (S.mutans biofilms; Nisin 0,008%, 20 min): 6.17±0.006 | pH change (in brackets), S.mutans biofilms (S.mutans biofilms; Nisin 0,008%, 20 min vs previous time point): -0.01 | pH of mechanically disrupted S.mutans biofilms (S.mutans biofilms; Nisin 0,008%, 30 min): 6.13±0.006 | pH change (in brackets), S.mutans biofilms (S.mutans biofilms; Nisin 0,008%, 30 min vs previous time point): -0.04 | effect on the pH of cariogenic biofilm affected by sucrose (S.mutans biofilms; nisin 0.004-0.008%): stabilizing effect | effect on growth and biomass accumulation ([1]; concentrations lower than 0.0039%): no significant effect | concentrations that significantly inhibited growth and biomass accumulation, but had no bactericidal effect [1, 2]: 0.0039-0.0078% | final concentration with pronounced antibacterial effect [1, 2]: 0.0078-0.125% | minimum-suppressive concentration [1, 2]: 0.0039% | antibacterial and inhibitory activity against S.mutans ([1]; nisin solution in concentration of 0.008% and below): not able to have antibacterial and inhibitory activity
